Assay results reported in patent US20160264636A1, “PEPTIDE INHIBITORS OF TEAD/YAP-TAZ INTERACTION” (UNIVERSITE PIERRE ET MARIE CURIE (PARIS 6), priority 2013, published 2016).
Like-named read-outs stand apart in the source and are kept apart here. Peptide text beside a SMILES is read from it.

What was measured:
[1] = system: ES2 cells; assay: MTT cytotoxicity assay, ES2; format: cell-based; settings: for Letal Dose (μM) LD25: Table VIII, 72 h, MTT, 25% cell death; for Cell viability (%): Table IX
Procedure: (§1) The cytotoxicity of penetrating peptides or chemotherapeutic agents, alone or in combination, was evaluated by the (3-(4,5-dimethylthiazol-2-yl)-2,5-diphenyltetrazolium bromide) tetrazolium (MTT) reduction assay. The cells were seeded in 96-well plates (100 μL/well) at a cell density defined from growth curves. After 24 hours of incubation, cells were treated with the peptides for 72 hours. The wells were rinsed two times with RPMI. After washing, 10 μl of stock MTT solution (5 mg/ml; MTT (SIGMA #M-2128) in PBS Dubecco's 1× without Ca^2+ and Mg^2+) was added to a final volume of 100 μl of culture medium. Cell lines were incubated for additional 4 hours at 37° C. under humid atmosphere with 5% (v/v) CO2. The formation of blue formazan crystals was detected under a microscope. An equal volume of 10% SDS (MERCK, #926.238) in 10 mM HCl was added to each well and the plate was placed in the incubator overnight to dissolve formazan crystals. The plates were mixed to ensure complete solubilisation of formazan crystals and absorbance was measured at 570 nm and 620 nm. The percentage of viable cells was estimated using the formula: % cell viability=ΔOD(570-620) treated/ΔOD(570-620)control×100.
(§2) ES2, IGROV-1, OVCAR8 and SKOV3 cell lines come from human ovarian cancer.
(§3) Cell-penetrating peptides (CPPs) comprising the binding site of TEAD to TAZ or YAP or of YAP to TEAD (TAZ, TEAD and YAP peptides, respectively) were chemically synthesized. The effect of the peptides on cell viability was assayed on several human ovarian cancer cell lines. All the ovarian cancer cell lines were treated for 72 h with different peptide concentrations. Cytotoxicity was analysed as described in example 2.

[2] = system: SKOV3 cells; assay: MTT cytotoxicity assay, SKOV3; format: cell-based; settings: for Letal Dose (μM) LD25: Table VIII, 72 h, MTT, 25% cell death; for Cell viability (%): Table IX
Procedure: as §1, §2, §3

[3] = system: MP41 uveal melanoma cells; assay: MTT cytotoxicity assay, MP41; format: cell-based, human; settings: MP41; 100 μM; 72 h
Procedure: as §1
MP41, MP46 and MP66 cell lines come from uveal melanoma patient derived xenografts. They were cultured in RPMI medium supplemented with 20% of FCS.
All the uveal melanoma cell lines were treated for 72 h with different concentrations of the peptides TAZ, “LV”, YAP and TEAD (SEQ ID NO: 35, 36, 37). Cytotoxicity was analysed as described in example 2. […] The best effect was shown in MP41 with about 40% cytotoxicity at 100 μM.

[4] = system: OVCAR8 cells; assay: MTT cytotoxicity assay, OVCAR8; format: cell-based; settings: for Letal Dose (μM) LD25: Table VIII, 72 h, MTT, 25% cell death; for Cell viability (%): Table IX
Procedure: as §1, §2, §3

[5] = system: A549 cells; format: cell-based; settings: for Letal Dose (μM) LD25: Table II, 72 h, MTT, 25% cell death
Procedure: (§4) H1650, H1975, H1299, A549 cell lines were cultured in DMEM medium supplemented with 10% of FCS. HBEC cell lines (wt and Ras V12) were cultured in KSFM supplemented with growth factors. All the cell lines come from human non small cell lung cancer (NSCLC).
as §1
(§5) Cell-penetrating peptides (CPPs) comprising the binding site of TEAD to TAZ or YAP or of YAP to TEAD (TAZ, TEAD and YAP peptides, respectively) were chemically synthesized. The effect of the peptides on cell viability was assayed on several human non small cell lung cancer (NSCLC) cell lines. All the lung cancer cell lines were treated for 72 h with different peptide concentrations. Cytotoxicity was analysed as described in Materials and Methods.

[6] = system: HBEC wt cells; format: cell-based; settings: for Letal Dose (μM) LD25: Table II, HBEC WT, 72 h, MTT, 25% cell death; for Cell viability (%): HBEC wt
Procedure: as §4, §1, §5

[7] = system: H1975 cells; format: cell-based; settings: for Letal Dose (μM) LD25: Table II, 72 h, MTT, 25% cell death
Procedure: as §4, §1, §5

[8] = system: H1650 cells; format: cell-based; settings: for Letal Dose (μM) LD25: Table II, 72 h, MTT, 25% cell death
Procedure: as §4, §1, §5

[9] = system: H1299 cells; format: cell-based; settings: for Letal Dose (μM) LD25: Table II, 72 h, MTT, 25% cell death
Procedure: as §4, §1, §5

[10] = system: HBEC RasV12 cells; format: cell-based; settings: for Letal Dose (μM) LD25: Table II, 72 h, MTT, 25% cell death
Procedure: as §4, §1, §5

[11] = system: IGROV-1 cells; assay: MTT cytotoxicity assay, IGROV; format: cell-based; settings: for Letal Dose (μM) LD25: Table VIII, 72 h, MTT, 25% cell death; for Cell viability (%): Table IX
Procedure: as §1, §2, §3

[12] = Table V, drug alone vs its vehicle (Glucose 5% or NaCl)
[13] = Table VI, peptide alone vs HPCD 10%
[14] = Table III, drug alone vs its vehicle (HPCD10%, NaCl or Glucose 5%)
[15] = Table IV, drug alone vs its vehicle (Glucose 5% or NaCl)

| Compound | Letal Dose (μM) LD25 [1] [µM] | Letal Dose (μM) LD25 [2] [µM] | Letal Dose (μM) LD25 [5] [µM] | Cell viability (%) [5, 12] [%] | Letal Dose (μM) LD25 [6] [µM] | Cell viability (%) [6, 12] [%] | Letal Dose (μM) LD25 [7] [µM] | Cell viability (%) [7, 12] [%] | Letal Dose (μM) LD25 [8] [µM] | Cell viability (%) [8, 12] [%] | Letal Dose (μM) LD25 [9] [µM] | Cell viability (%) [9, 12] [%] | Letal Dose (μM) LD25 [10] [µM] | Cell viability (%) [10, 12] [%] | Cell viability (%) [5, 14] [%] | Cell viability (%) [6, 14] [%] | Cell viability (%) [7, 14] [%] | Cell viability (%) [8, 14] [%] | Cell viability (%) [9, 14] [%] | Cell viability (%) [10, 14] [%] | also measured |
| --- | --- | --- | --- | --- | --- | --- | --- | --- | --- | --- | --- | --- | --- | --- | --- | --- | --- | --- | --- | --- | --- |
| CC[C@H](C)[C@H](NC(=O)[C@H](CCCCN)NC(=O)[C@H](CCCCN)NC(=O)[C@H](CCCCN)NC(=O)[C@H](CCCCN)NC(=O)[C@@H](N)C(C)C)C(=O)N[C@@H](CCCCN)C(=O)N[C@@H](C)C(=O)N[C@@H](CCC(=O)O)C(=O)N[C@H](C(=O)N[C@@H](CCCCN)C(=O)N[C@H](C(=O)N[C@@H](CCCCN)C(=O)N[C@H](C(=O)N[C@@H](C)C(=O)N[C@@H](CC(N)=O)C(=O)N[C@H](C(=O)N1CCC[C@H]1C(=O)N[C@@H](CCC(N)=O)C(=O)N[C@H](C(=O)N[C@H](C(=O)N1CCC[C@H]1C(=O)N[C@@H](CCSC)C(=O)N[C@@H](CCCNC(=N)N)C(=O)N[C@@H](CC(C)C)C(=O)N[C@@H](CCCNC(=N)N)C(=O)N[C@@H](CCCCN)C(=O)N[C@@H](CC(C)C)C(=O)N1CCC[C@H]1C(=O)N[C@@H](CC(=O)O)C(=O)O)C(C)C)[C@@H](C)O)C(C)C)[C@@H](C)O)[C@@H](C)CC)[C@@H](C)CC [YAP] (H-VKKKKIKAEIKIKTANVPQTVPMRLRKLPD-OH) | >100 | >100 | >100 | −23.19 | >100 | −60.73 | >100 | −26.22 | >100 | −45.14 | >100 | −40.21 | >100 | −72.88 |  |  |  |  |  |  | cytotoxicity [3]: about 40%; Letal Dose (μM) LD25 [4]: >100 µM; Cell viability (%) [5, 13]: −10.25%; Cell viability (%) [6, 13]: −41.35%; Cell viability (%) [7, 13]: −5.766%; Cell viability (%) [8, 13]: −4.488%; Cell viability (%) [9, 13]: −13.8%; Cell viability (%) [10, 13]: −44.98%; Letal Dose (μM) LD25 [11]: >100 µM |
| CC(=O)O[C@@]12CO[C@@H]1C[C@H](O)[C@@]1(C)C(=O)[C@H](O)C3=C(C)[C@@H](OC(=O)[C@H](O)[C@@H](NC(=O)OC(C)(C)C)c4ccccc4)C[C@@](O)([C@@H](OC(=O)c4ccccc4)[C@H]21)C3(C)C [Docetaxel] |  |  | 0.0002 | −39.31 | 0.0002 | −2.578 | 0.0008 | −79.23 | 0.0001 | 0.1681 | 0.007 | −89.07 | 0.0002 | −95.93 | 11.73 | 25.93 | 5.931 | 23.41 | −10.53 | 15.19 | Cell viability (%) [5, 15]: −49.02%; Cell viability (%) [6, 15]: −54.02%; Cell viability (%) [7, 15]: −92.17%; Cell viability (%) [8, 15]: −41.32%; Cell viability (%) [9, 15]: −72.38%; Cell viability (%) [10, 15]: −88.64% |
| VKKKKIKAEIKIPPHAFFVLKFWADLNWGPSGEEAGAG [TAZ] | 6 | 60 | 6 |  | 2.5 |  | 3 |  | >100 |  | 5 |  | 2.5 |  | −38 | −58.16 | −49.35 | −30.68 | −24.71 | −89.9 | Cell viability (%) ([1]; TAZ 10 μM vs HPCD 10%): −46.33%; Cell viability (%) ([1]; TAZ 25 μM vs HPCD 10%): −57.44%; Cell viability (%) ([2]; TAZ 10 μM vs HPCD 10%): −26.64%; Cell viability (%) ([2]; TAZ 25 μM vs HPCD 10%): −36.09%; Cell viability (%) ([4]; TAZ 10 μM vs HPCD 10%): −18.7%; Cell viability (%) ([4]; TAZ 25 μM vs HPCD 10%): −24.69%; Letal Dose (μM) LD25 [4]: 9 µM; Cell viability (%) [5, 13]: −7.835%; Cell viability (%) [6, 13]: −66.15%; Cell viability (%) [7, 13]: −13.21%; Cell viability (%) [8, 13]: −2.439%; Cell viability (%) [9, 13]: −8.413%; Cell viability (%) [10, 13]: −53.02%; Cell viability (%) ([11]; TAZ 10 μM vs HPCD 10%): −39.39%; Cell viability (%) ([11]; TAZ 25 μM vs HPCD 10%): −34%; Letal Dose (μM) LD25 [11]: 5 µM |
| N.N.[Cl][Pt][Cl] [Cisplatin] |  |  | 3 | −57.64 | 2 | −77.96 | 30 | −97.93 | 2 | −83.01 | 30 | −95.42 | 1 | −89.58 | −37.43 | −21.45 | −76.57 | −55.41 | −57.12 | −44.42 | Cell viability (%) [5, 15]: −60.45%; Cell viability (%) [6, 15]: −77.04%; Cell viability (%) [7, 15]: −85.91%; Cell viability (%) [8, 15]: −77.26%; Cell viability (%) [9, 15]: −73.62%; Cell viability (%) [10, 15]: −55.51% |
